Earlier results, collected in patent publication US12686665B2, “Bicyclic fused ring derivative or salt thereof and pharmaceutical composition comprising same” (YUHAN CORPORATION, priority 2021, dated 2026).

Assays:
[1] = tested on: liver and cardiacfibrosis; conditions: in vivo; cited from earlier work
[2] = tested on: UUO animal model causing kidney disease; conditions: cited from earlier work
[3] = tested on: mouse bleomycin-mediated lung injury model; conditions: cited from earlier work
[4] = tested on: NASH patients with advanced liver fibrosis and liver cirrhosis; conditions: after 4 years of the treatment; cited from earlier work

For N#CCCN [β-Aminopropionitrile], the “liver and cardiac fibrosis” value [1] is given as “improve liver and cardiacfibrosis”.

For NC/C=C(\F)CS(=O)(=O)c1cccc2cccnc12 [PXS-5505], the renal fibrosis [2] is listed as “significantly reduced renal fibrosis”.

In the case of NCc1cc(Oc2cccc(C(=O)N3C[C@@H](O)[C@H](F)C3)c2)nc(C(F)(F)F)c1 [PAT-1251], the fibrosis [3] is given as “significantly reduced fibrosis”.

B1: Simtuzumab: a monoclonal antibody against LOXL2 (antibody, chains of the INN, looked up, V domains shown)
VH: QVQLVQSGAEVKKPGASVKVSCKASGYAFTYYLIEWVRQAPGQGLEWIGVINPGSGGTNYNEKFKGRATITADKSTSTAYMELSSLRSEDTAVYFCARNWMNFDYWGQGTTVTVSS
VL: DIVMTQTPLSLSVTPGQPASISCRSSKSLLHSNGNTYLYWFLQKPGQSPQFLIYRMSNLASGVPDRFSGSGSGTDFTLKISRVEAEDVGVYYCMQHLEYPYTFGGGTKVEIK
In the case of B1, the histological efficacy [4] is listed as “failure to prove histological efficacy”.
